According to PubChem BioAssay (NCI):
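Grown in 96-well plates, cells were treated for 48 hours with each compound at five concentrations. Insufficient inhibition: endpoint recorded as highest concentration tested. GI50: concentration for 50% inhibition of growth. TGI denotes the concentration required for complete inhibition of growth.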

Columns and labels:
Assay in all cases: NCI tumour cell line growth inhibition, 48 h
[1] = system: HOP-62 NSCLC
[2] = system: T-47D breast
[3] = system: MOLT-4 leukemia
[4] = system: A549 NSCLC
[5] = system: ACHN renal
[6] = system: M14 melanoma
[7] = system: SW-620 colon
[8] = system: COLO 205 colon
[9] = system: DU-145 prostate
[10] = system: IGROV1 ovarian

## COc1cc(CCNc2nc3cc(N)cc(N)c3nc2-c2ccccc2)cc(OC)c1
[1]
  GI50: 2.95 µM
  TGI: 9.35 µM
[2]
  GI50: 1.74 µM
  TGI: 3.8 µM
[3]
  GI50: 0.941 µM
  TGI: 2.67 µM
[4]
  GI50: 3.64 µM
  TGI: 14.9 µM
[5]
  GI50: 1.8 µM
  TGI: 3.27 µM
[6]
  GI50: 2 µM
  TGI: 4.05 µM
[7]
  GI50: 2.28 µM
  TGI: 4.71 µM
[8]
  GI50: 1.76 µM
  TGI: 3.56 µM
[9]
  GI50: 5.48 µM
  TGI: 17.8 µM
[10]
  GI50: 2.52 µM
  TGI: 7.98 µM

## O=C(Nc1ccc(Cl)cc1F)c1cc(Cl)ccc1O
[1]
  GI50: 0.999 µM
  TGI: > 24.5 µM
[2]
  GI50: 0.253 µM
[3]
  GI50: 1.14 µM
  TGI: 3.99 µM
[4]
  GI50: 1.34 µM
  TGI: > 100 µM
[5]
  GI50: 0.532 µM
  TGI: > 88 µM
[6]
  GI50: 0.437 µM
  TGI: 2.78 µM
[7]
  GI50: 0.7 µM
  TGI: > 22.5 µM
[8]
  GI50: 2.41 µM
  TGI: 5.92 µM
[9]
  GI50: 0.915 µM
  TGI: > 42.8 µM
[10]
  GI50: 0.247 µM
  TGI: > 100 µM

## CC(=O)OC1CC(C)c2c(Cl)ncnc21 (centres undefined)
[1]
  GI50: > 100 µM
  TGI: > 100 µM
[2]
  GI50: > 100 µM
  TGI: > 100 µM
[3]
  GI50: > 100 µM
  TGI: > 100 µM
[4]
  GI50: > 100 µM
  TGI: > 100 µM
[5]
  GI50: > 100 µM
  TGI: > 100 µM
[6]
  GI50: > 100 µM
  TGI: > 100 µM
[7]
  GI50: > 100 µM
  TGI: > 100 µM
[8]
  GI50: > 100 µM
  TGI: > 100 µM
[9]
  GI50: > 100 µM
  TGI: > 100 µM
[10]
  GI50: > 100 µM
  TGI: > 100 µM

## NCC(=O)NC(CO)C(=O)O (centres undefined)
[1]
  TGI: > 100 µM
[2]
  TGI: > 100 µM
[3]
  TGI: > 100 µM
[4]
  TGI: > 100 µM
[5]
  TGI: > 100 µM
[6]
  TGI: > 100 µM
[7]
  TGI: > 100 µM
[8]
  TGI: > 100 µM
[9]
  TGI: > 100 µM
[10]
  TGI: > 100 µM

## Cc1cc2c(=O)c3ccccc3oc2c(C#N)c1C
[1]
  TGI: > 100 µM
[2]
  TGI: > 100 µM
[3]
  TGI: > 100 µM
[4]
  TGI: > 100 µM
[5]
  TGI: > 100 µM
[6]
  TGI: > 100 µM
[7]
  TGI: > 100 µM
[8]
  TGI: > 100 µM
[9]
  TGI: > 100 µM
[10]
  TGI: > 100 µM

## Cc1ccc(C(CC(=O)c2ccccc2)C(C(=O)c2ccccc2)C(c2ccc(C)cc2)C2C(=O)NC(=S)NC2=O)cc1 (centres undefined)
[1]
  GI50: > 50 µM
  TGI: > 50 µM
[2]
  GI50: 5.78 µM
  TGI: > 50 µM
[3]
  GI50: 8.85 µM
  TGI: > 50 µM
[4]
  GI50: 12.8 µM
  TGI: > 50 µM
[5]
  GI50: 11.3 µM
  TGI: > 50 µM
[6]
  GI50: 27.2 µM
  TGI: > 50 µM
[7]
  GI50: 19.4 µM
  TGI: > 50 µM
[8]
  GI50: 8.45 µM
  TGI: 24.5 µM
[9]
  GI50: 18.5 µM
  TGI: > 50 µM
[10]
  GI50: 19.2 µM
  TGI: > 50 µM

## Nc1nc(Cl)nc2c1ncn2C1CCC(COP(=O)(O)OP(=O)(O)OP(=O)(O)O)O1 (centres undefined)
[1]
  TGI: 51.1 µM
[2]
  TGI: > 100 µM
[3]
  TGI: > 100 µM
[4]
  TGI: 78.8 µM
[5]
  TGI: > 100 µM
[6]
  TGI: 36.7 µM
[7]
  TGI: > 100 µM
[8]
  TGI: 41.7 µM
[9]
  TGI: 69.8 µM
[10]
  TGI: > 100 µM

## O=C1C(Cl)=C(Nc2cccc(O)c2)C(=O)N1c1ccc(Cl)cc1Cl
[1]
  GI50: 32.8 µM
  TGI: > 100 µM
[2]
  GI50: 43.6 µM
  TGI: > 100 µM
[3]
  GI50: 7.32 µM
  TGI: 33.1 µM
[4]
  GI50: 46.3 µM
  TGI: > 100 µM
[5]
  GI50: 30.6 µM
  TGI: > 100 µM
[6]
  GI50: 47.6 µM
  TGI: > 100 µM
[7]
  GI50: 17.3 µM
  TGI: 38.3 µM
[8]
  GI50: 28.2 µM
  TGI: > 100 µM
[9]
  GI50: 23.1 µM
  TGI: 90.5 µM
[10]
  GI50: 22.5 µM
  TGI: 51.5 µM
